Measurements: BindingDB's records for doi:10.1016/j.bmcl.2006.04.076 (Merck Research Laboratories, 2006)

Target: Beta-secretase 1 (Homo sapiens, UniProt P56817)
Test: In Vitro BACE1 Activity Assay
Conditions: pH 4.5; 22 °C
Procedure: The assay was performed using a 96-well format on a HPLC equipped with four 96-well plate holders. Test compounds were preincubated with enzymes for 30 min, followed by the addition of substrate. The solution was then incubated for an additional 30 min at room temperature. After the reaction was terminated, the solution was filtered, and the filtrate was subjected to HPLC analysis. The substrate and product were monitored by fluorescence detection (340nm excitation, 440 nm emission).

Sequence of Beta-secretase 1 (P56817 whole entry): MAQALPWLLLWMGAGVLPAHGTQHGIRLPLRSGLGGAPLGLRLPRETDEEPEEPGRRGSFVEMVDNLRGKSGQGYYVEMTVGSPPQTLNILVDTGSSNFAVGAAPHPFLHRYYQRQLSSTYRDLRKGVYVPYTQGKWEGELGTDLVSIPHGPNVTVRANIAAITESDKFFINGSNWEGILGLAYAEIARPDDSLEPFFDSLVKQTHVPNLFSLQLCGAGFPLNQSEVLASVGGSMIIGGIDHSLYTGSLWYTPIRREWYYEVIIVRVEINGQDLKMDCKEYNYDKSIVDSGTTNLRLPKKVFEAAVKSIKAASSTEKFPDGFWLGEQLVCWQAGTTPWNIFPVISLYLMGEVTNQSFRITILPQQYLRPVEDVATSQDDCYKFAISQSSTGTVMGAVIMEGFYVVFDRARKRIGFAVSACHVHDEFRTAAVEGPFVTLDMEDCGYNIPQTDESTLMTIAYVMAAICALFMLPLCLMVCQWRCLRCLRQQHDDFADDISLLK

Row | IC50 [µM] | Structure (SMILES)
1 | 0.02 | CC(C)CNC(=O)[C@H](C)NC[C@H](Cc1ccccc1)NC(=O)c1cc(/C=C\[C@H]2C[C@@H]2C)cc(N(C)S(C)(=O)=O)c1 [N-[(1S)-1-benzyl-2-({(1S)-1-methyl-2-[(2-methylpropyl)amino]-2-oxoethyl}amino)ethyl]-3-{(Z)-2-[(1S,2S)-2-methylcyclopropyl]ethenyl}-5-[methyl(methylsulfonyl)amino]benzamide]
2 | 17.2 | C[C@H](NC[C@H](Cc1ccccc1)NC(=O)c1cc(C(=O)N[C@H](C)c2ccc(F)cc2)cc(N(C)S(C)(=O)=O)c1)C(=O)N1CCCC1C(=O)O (stereo partly drawn) [1-[(2S)-2-{[(2S)-2-[(3-{[(1R)-1-(4-fluorophenyl)ethyl]carbamoyl}-5-(N-methylmethanesulfonamido)phenyl)formamido]-3-phenylpropyl]amino}propanoyl]pyrrolidine-2-carboxylic acid]
